Source: the supplement of paper PMC10307832

Assays:
Experiment in all cases: relative viability (nuclei count vs DMSO), 5 days (fraction); higher = more cells survive
Shikonin + Luminespib = compound: CC(C)=CC[C@@H](O)C1=CC(=O)c2c(O)ccc(O)c2C1=O [Shikonin] + CCNC(=O)c1noc(-c2cc(C(C)C)c(O)cc2O)c1-c1ccc(CN2CCOCC2)cc1 [Luminespib] (partner 0.01 µM)
In short: (§1)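 The day after seeding in 1536-well plates, lung cancer cell lines were treated by pin tool with a single drug, or with a fixed anchor-drug dose together with five library-drug doses (not always all listed) in √10 steps. After 5 days, a combined fix-and-stain solution (final 0.05% Triton X-100, 1% formaldehyde, 1 ug/ml Hoechst) was added. Nuclei counted on 4× images gave relative viability as treated counts over vehicle counts, reported as the median of duplicate plates.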

Shikonin + Olaparib = compound: CC(C)=CC[C@@H](O)C1=CC(=O)c2c(O)ccc(O)c2C1=O [Shikonin] + O=C(c1cc(Cc2n[nH]c(=O)c3ccccc23)ccc1F)N1CCN(C(=O)C2CC2)CC1 [Olaparib] (partner 8 µM)
In short: as §1

[1] = compound: CC(C)N(CCCNC(=O)Nc1ccc(C(C)(C)C)cc1)C[C@H]1O[C@@H](n2ccc3c(N)ncnc32)[C@H](O)[C@@H]1O + CS(=O)(=O)N1CCN(Cc2cc3nc(-c4cccc5[nH]ncc45)nc(N4CCOCC4)c3s2)CC1 [Pictilisib] (partner 1 µM)
In short: as §1

[2] = compound: CC(C)N(CCCNC(=O)Nc1ccc(C(C)(C)C)cc1)C[C@H]1O[C@@H](n2ccc3c(N)ncnc32)[C@H](O)[C@@H]1O + NC(=O)Nc1cc(-c2cccc(F)c2)sc1C(=O)N[C@H]1CCCNC1 [AZD7762] (partner 0.2 µM)
In short: as §1

Cell Line	relative viability (Shikonin + Luminespib; first compound 0.01 µM)	relative viability (Shikonin + Luminespib; first compound 0.1 µM)	relative viability (Shikonin + Luminespib; first compound 0.3162 µM)	relative viability (Shikonin + Luminespib; first compound 1 µM)	relative viability (Shikonin + Olaparib; first compound 0.01 µM)	relative viability (Shikonin + Olaparib; first compound 0.1 µM)	relative viability (Shikonin + Olaparib; first compound 0.3162 µM)	relative viability (Shikonin + Olaparib; first compound 1 µM)	relative viability ([1]; first compound 0.08 µM)	relative viability ([1]; first compound 0.253 µM)	relative viability ([1]; first compound 0.8 µM)	relative viability ([1]; first compound 2.53 µM)	relative viability ([1]; first compound 8 µM)	relative viability ([2]; first compound 0.08 µM)	relative viability ([2]; first compound 0.253 µM)	relative viability ([2]; first compound 0.8 µM)	relative viability ([2]; first compound 2.53 µM)	relative viability ([2]; first compound 8 µM)
PC-14	0.115	0.12	0.135	0.151	0.282	0.235	0.191	0.121	0.657	0.528	0.795	0.882	0.57	0.321	0.364	0.401	0.274	0.287
H3255	0.869	0.973	1.05	0.865	0.552	0.542	0.597	0.509	0.463	0.414	0.442	0.557	0.461	0.922	0.864	0.827	0.823	0.678
NCI-H1437	1.17	1.18	1.1	1.1	0.661	0.678	0.601	0.521	0.362	0.358	0.526	0.428	0.441	1.13	1.06	1.15	1.07	1.14
LU99A	0.165	0.242	0.268	0.177	0.256	0.272	0.233	0.222	0.332	0.287	0.411	0.369	0.312	0.416	0.316	0.421	0.473	0.317
HCC-827	0.518	0.887	0.638	0.64	0.678	0.562	0.621	0.52	0.951	1.1	0.886	1.07	0.9	0.259	0.252	0.403	0.203	0.242
LK-2	0.195	0.185	0.211	0.17	0.744	0.887	0.75	0.753	0.56	0.532	0.651	0.644	0.609		0.332	0.628	0.428	0.322
BEN	0.505	0.469	0.474	0.849	1.08	1.03	1.02	1.01	0.606	0.497	0.586	0.588	0.586	0.736	0.746	0.716	0.598	0.795
NCI-H2347	0.573	0.477	0.471	0.526	0.55	0.619	0.451	0.551	0.45	0.546	0.661	0.582	0.842	0.795	0.815	0.605	0.803	0.746
NCI-H1395	0.672	0.793	0.744	0.655	0.407	0.455	0.416	0.427	0.595	0.55		0.59	0.738	0.424	0.412	0.42	0.421	0.38
201T	0.971	1.13	1.03	1.07	0.843	0.893	0.869	0.951	0.652	0.624	0.571	0.722	0.733	0.6	0.554		0.56	0.622
NCI-H2170	0.8	0.703	0.632	0.562	0.623	0.594	0.588	0.576	0.36	0.262	0.336	0.372	0.323	0.934	0.79	0.66	0.836	0.857
NCI-H596	1.14	1.22	1.16	1.13	0.547	0.728	0.709	0.605	0.388	0.412	0.173	0.355	0.414	1.09	0.943	0.926	1.23	1.09
NCI-H838	0.369	0.237	0.317	0.258	0.798	0.845	0.865	0.667	0.328	0.372	0.425	0.473	0.494	0.864	0.909	0.912	0.806	0.95
HCC-15	0.358	0.888	0.242	0.402	0.796	0.735	0.722	0.669	0.697	0.695	0.643	0.732	0.701	1.24	1.35		0.95	1.28
ABC-1	0.713	0.753	0.4	0.17	0.78	0.894	0.948	0.637	0.623	0.71		0.828	0.701	0.933	0.954		1.02	0.729
LCLC-103H	1.01	1.17	1.06	0.993	0.793	0.94	0.788	0.839	0.639	0.522	0.703	0.551	0.716	0.745	0.805	0.686	0.701	0.727
NCI-H460	0.0384	0.034	0.0299	0.0321	0.584	0.615	0.515	0.39	0.305	0.391	0.335	0.381	0.38	0.725	0.58	0.605	0.499	0.585
EPLC-272H	0.167	0.303	0.209	0.261	0.553	0.63	0.57	0.586	0.286	0.253	0.314	0.284	0.322	0.262	0.238	0.21	0.259	0.35
